Values of other authors in patent US20020064788A1, “Systematic approach to mechanism-of-response analyses” (priority 2000, published 2002).
Like-named read-outs stand apart in the source and are kept apart here.

Experiments:
[1] = tested on: Na^+K^+-ATPase
[2] = tested on: malignant and normal cells
[3] = tested on: androgen-dependent cells; conditions: ouabain-induced decrease in Na+K+-ATPase activity
[4] = tested on: intracellular Ca^2+ levels; c-fos, c-jun, AP-1; conditions: partial inhibition of Na+K+-ATPase
[5] = tested on: breast cancer; conditions: women on digitalis, five years after mastectomy
[6] = tested on: Glioblastoma cell lines; conditions: 30-60 nM, several Glioblastoma cell lines
[7] = tested on: Jurkat (T-cell) cell lines
[8] = tested on: Daudi (B-cell) cell lines; conditions: non-toxic doses

## C[C@H]1O[C@@H](O[C@H]2[C@@H](O)C[C@H](O[C@H]3[C@@H](O)C[C@H](O[C@H]4CC[C@@]5(C)[C@H](CC[C@@H]6[C@@H]5CC[C@]5(C)[C@@H](C7=CC(=O)OC7)CC[C@]65O)C4)O[C@@H]3C)O[C@@H]2C)C[C@H](O)[C@@H]1O [Digitoxin]
[1]
  inhibition of Na+K+-ATPase: specific inhibitors

## C[C@@H]1O[C@@H](O[C@H]2C[C@@H](O)[C@]3(CO)[C@H]4[C@H](O)C[C@]5(C)[C@@H](C6=CC(=O)OC6)CC[C@]5(O)[C@@H]4CC[C@]3(O)C2)[C@H](O)[C@H](O)[C@H]1O [ouabain]
[1]
  inhibition of Na+K+-ATPase: specific inhibitors
[2]; malignant cells
  sensitization to irradiation: sensitizes
[2]; normal cells
  sensitization to irradiation: not
[3]
  sensitivity of cells to cisplatin: reduces sensitivity
[4]
  expression of c-fos, c-jun, and the transcription factor AP-1: increases
  intracellular Ca2+ levels: increases

## CC/C(=C(\c1ccccc1)c1ccc(OCCN(C)C)cc1)c1ccccc1 [tamoxifen]
[1]
  inhibition of Na+K+-ATPase: appears to inhibit

## digitalis
[5]
  reduction in recurrence of breast cancer: 9.6 fold
[6]
  apoptosis: induces apoptosis
  cell adherence: affects cell adherence
[7]; non-toxic doses, Jurkat
  apoptosis: induces apoptosis
[8]
  apoptosis: induces apoptosis

B1: Fas ligand: protein which binds to Fas receptor and strongly induces apoptosis (protein, UniProt P48023 130-281, looked up)
Tumor necrosis factor ligand …: QIGHPSPPPEKKELRKVAHLTGKSNSRSMPLEWEDTYGIVLLSGVKYKKGGLVINETGLYFVYSKVYFRGQSCNNLPLSHKVYMRNSKYPQDLVMMEGKMMSYCTTGQMWARSSYLGAVFNLTSADHLYVNVSELSLVNFEESQTFFGLYKL
[7]; Jurkat cells, monitored by flow cytometry
  apoptosis: induces apoptosis
